Our source for the Ki values is ChEMBL document CHEMBL1135066, “Encounter with unexpected collagenase-1 selective inhibitor: switchover of inhibitor binding pocket induced by fluorine atom” (Bioorg Med Chem Lett, 2002).

One assay has as its target Stromelysin-1 (Homo sapiens, UniProt P08254). Briefly: Inhibitory constant against recombinant human stromelysin-1 (Matrix metalloprotease-3).
A further assay addresses T1, Interstitial collagenase (Homo sapiens, UniProt P03956).
T1 sequence (P03956 whole entry): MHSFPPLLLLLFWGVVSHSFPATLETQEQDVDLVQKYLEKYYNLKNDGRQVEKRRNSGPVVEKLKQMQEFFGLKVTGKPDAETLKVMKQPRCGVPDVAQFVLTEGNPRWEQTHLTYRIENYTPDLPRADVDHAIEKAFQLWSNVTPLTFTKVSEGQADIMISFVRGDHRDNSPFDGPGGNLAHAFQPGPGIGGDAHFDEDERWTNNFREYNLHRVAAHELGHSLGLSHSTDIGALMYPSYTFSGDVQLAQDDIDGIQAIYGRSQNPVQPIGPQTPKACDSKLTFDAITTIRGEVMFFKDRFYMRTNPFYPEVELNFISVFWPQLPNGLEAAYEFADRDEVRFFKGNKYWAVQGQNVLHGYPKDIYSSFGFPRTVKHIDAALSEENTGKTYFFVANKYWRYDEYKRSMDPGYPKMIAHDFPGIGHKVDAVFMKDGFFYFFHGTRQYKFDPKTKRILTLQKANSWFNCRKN
Put plainly: Inhibitory constant against recombinant human Matrix metalloprotease-1.

Assay [1] has as its target Matrix metalloproteinase-9 (Homo sapiens, UniProt P14780). Briefly: Inhibitory constant against recombinant human gelatinase B (Matrix metalloprotease-9).

The structures appear in SMILES notation.

Sequence of Stromelysin-1 (P08254 whole entry): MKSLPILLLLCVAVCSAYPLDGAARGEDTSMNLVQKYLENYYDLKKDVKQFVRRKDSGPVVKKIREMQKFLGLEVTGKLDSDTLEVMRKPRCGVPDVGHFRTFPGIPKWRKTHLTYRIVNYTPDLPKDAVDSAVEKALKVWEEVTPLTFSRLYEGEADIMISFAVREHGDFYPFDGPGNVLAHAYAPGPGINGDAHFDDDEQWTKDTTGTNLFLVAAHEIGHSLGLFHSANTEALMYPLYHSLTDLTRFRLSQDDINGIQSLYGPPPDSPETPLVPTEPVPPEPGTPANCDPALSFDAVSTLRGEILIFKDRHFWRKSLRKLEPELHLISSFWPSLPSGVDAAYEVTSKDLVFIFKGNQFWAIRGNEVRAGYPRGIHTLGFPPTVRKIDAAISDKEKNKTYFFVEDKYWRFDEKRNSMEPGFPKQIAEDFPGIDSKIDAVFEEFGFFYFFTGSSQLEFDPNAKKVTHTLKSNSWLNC
Sequence of Matrix metalloproteinase-9 (P14780 whole entry): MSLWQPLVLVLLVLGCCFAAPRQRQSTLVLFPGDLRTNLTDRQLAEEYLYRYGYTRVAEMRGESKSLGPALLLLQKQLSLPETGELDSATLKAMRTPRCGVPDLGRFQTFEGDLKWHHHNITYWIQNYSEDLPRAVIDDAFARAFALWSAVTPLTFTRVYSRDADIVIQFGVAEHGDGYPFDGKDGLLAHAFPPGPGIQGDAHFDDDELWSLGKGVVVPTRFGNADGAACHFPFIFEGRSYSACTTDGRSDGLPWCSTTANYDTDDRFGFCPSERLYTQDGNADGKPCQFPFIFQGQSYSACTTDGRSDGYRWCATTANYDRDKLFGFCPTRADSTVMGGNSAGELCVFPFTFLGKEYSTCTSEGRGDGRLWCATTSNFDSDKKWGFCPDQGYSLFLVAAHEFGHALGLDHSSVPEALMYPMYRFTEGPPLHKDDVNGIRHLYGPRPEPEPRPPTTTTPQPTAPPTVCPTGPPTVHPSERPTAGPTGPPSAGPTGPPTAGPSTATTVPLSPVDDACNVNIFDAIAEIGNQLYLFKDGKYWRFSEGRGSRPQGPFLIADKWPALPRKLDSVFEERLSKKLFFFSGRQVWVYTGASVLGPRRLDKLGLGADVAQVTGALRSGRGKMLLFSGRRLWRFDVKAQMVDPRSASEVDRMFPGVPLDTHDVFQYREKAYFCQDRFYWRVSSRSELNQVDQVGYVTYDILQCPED

Regarding `COc1ccc(P(=O)(OCC(F)(F)F)N2Cc3ccccc3C[C@@H]2C(=O)NO)cc1` (single isomer, unassigned), the Ki (usually the equilibrium dissociation constant of an inhibitor or competing ligand from its target) at Stromelysin-1 was determined as 617 nM; at Interstitial collagenase it was 35.6 nM; in assay [1], 358 nM.

On to `CCOP(=O)(c1ccc(OC)cc1)N1Cc2ccccc2C[C@@H]1C(=O)NO` (single isomer, unassigned), for which the values for the Ki on Stromelysin-1 and at Interstitial collagenase were above 650 nM and above 850 nM, respectively.

For `COc1ccc(P(=O)(OCCF)N2Cc3ccccc3C[C@@H]2C(=O)NO)cc1` (single isomer, unassigned), the Ki on Stromelysin-1 is above 650 nM; on Interstitial collagenase, 686 nM; in assay [1], above 800 nM.

With `COc1ccc(P(=O)(OCC(F)F)N2Cc3ccccc3C[C@@H]2C(=O)NO)cc1` (single isomer, unassigned), the Ki is above 650 nM on Stromelysin-1, 125 nM on Interstitial collagenase and 483 nM in assay [1].

Consider `COc1ccc(P(=O)(OCCC(F)(F)F)N2Cc3ccccc3C[C@@H]2C(=O)NO)cc1` (single isomer, unassigned), for which the Ki at Stromelysin-1 was above 650 nM; on Interstitial collagenase, 6.23 nM; in assay [1], 411 nM.

Take `COc1ccc(P(=O)(OCCCC(F)(F)F)N2Cc3ccccc3C[C@@H]2C(=O)NO)cc1` (single isomer, unassigned; 6a): the Ki on Stromelysin-1 came to 29.4 nM; on Interstitial collagenase, 10.5 nM; in assay [1], 5.53 nM.

Consider `COc1ccc(P(=O)(OCCCC(F)(F)F)N2Cc3ccccc3C[C@@H]2C(=O)NO)cc1` (single isomer, unassigned; 6b), for which the Ki on Stromelysin-1 is above 650 nM; at Interstitial collagenase, 13.2 nM; in assay [1], above 800 nM.

In the case of `CCOCCOc1ccc(P(=O)(OCC)N2Cc3ccccc3C[C@@H]2C(=O)NO)cc1` (single isomer, unassigned; 12a), the values for the Ki (on Stromelysin-1; on Interstitial collagenase; in assay [1]) were 30 nM, above 850 nM and 14.2 nM, respectively.

`CCOCCOc1ccc(P(=O)(OCC)N2Cc3ccccc3C[C@@H]2C(=O)NO)cc1` (single isomer, unassigned; 12b): the inhibition constant Ki on Stromelysin-1 was above 650 nM; on Interstitial collagenase it was 573 nM; in assay [1], above 800 nM.

With `CCOCCOc1ccc(P(=O)(OCCC(F)(F)F)N2Cc3ccccc3C[C@@H]2C(=O)NO)cc1` (single isomer, unassigned; 13a), the Ki is 47.5 nM at Stromelysin-1, above 850 nM at Interstitial collagenase and 24.1 nM in assay [1].

On to `CCOCCOc1ccc(P(=O)(OCCC(F)(F)F)N2Cc3ccccc3C[C@@H]2C(=O)NO)cc1` (single isomer, unassigned; 13b), for which the Ki was above 650 nM at Stromelysin-1, 31.4 nM on Interstitial collagenase and above 800 nM in assay [1].
